Source: US20100075993A1, “SMALL MOLECULE INHIBITORS AGAINST WEST NILE VIRUS REPLICATION” (DREXEL UNIVERSITY, priority 2005, published 2010)
pIC50: −log10 of the molar value.

How the values were obtained:
WNV RNA = test: Northern blot of WNV RNA in compound treated replicon cells; format: cell-based, West Nile virus; conditions: for WNV RNA replication / RNA level (northern blot): 10 μM, 48 hours; for WNV RNA reduction: 48-hour treatment, compounds 10 μM
Procedure: FIG. 6 is a picture of a Northern blot gel of compound treated WNV replicon cells. 4×10^4 cells were seeded in 24 well plates. After 24 hours, the cells were treated with DMSO (lanes 2, 3) or the non-specific inhibitors, MPA (lane 1) or the compounds […] (lane 4), 18-B3 (lane 5) or 52-F2 (lane 6). After 48 hours, total RNA were isolated, separated on denaturing agrose gels and transferred to nylon membrane. Total RNA from a non-replicon cell (Huh-7 cell) was loaded in lane 7 as negative control. The membrane was probed with [^32P]-dCTP-labeled WNV NS5 and human beta-actin. The signal was quantified using a BioRad phosphoimager and WNV RNA level was calculated using beta-actin as a reference.
To confirm that the compounds can indeed inhibit WNV RNA replication, the WNV RNA level in the replicon cells treated with compounds by Northern blot analysis. Several hit compounds, 18-B3, 275-F9, 275-D9, 52-F2 and MPA were selected to treat the BHK 26.5 cells at 10 μM. […] The “hit” compounds 18-B3 and 275-F9 reduced WNV RNA by 1.5 and 2 fold, respectively (FIG. 6, lanes 4, 5). 18-B3 is one of the nine compounds that have similar structures while 275-F9 is one from another class of four compounds (Table 3).
Total cellular RNA was extracted by using the RNEASY kit (Qiagen NV, Netherlands). Northern blot analysis was done according to the protocol of Gu et al. 2002 (8). Briefly, 5 μg total RNA was electrophoresed through a 1.0% agarose gel containing 2.2M formaldehyde, transferred to a nylon membrane and immobilized by UV cross-linking (Stratagene, La Jolla, Calif.). After pre-hybridization in 5 ml of QuickHyb (Amersham, Piscataway, N.J. GE Healthcare, Giles, UK), [2P] dCTP-labeled probe made by random primer labeling of a 2.7 kb NS5 DNA fragment and a human beta-actin DNA at 65° C. The membrane was washed twice in 2×SSC/0.1% SDS for 10 min at room temperature and twice in 0.1×SSC/0.1% SDS for 15 min at 68° C. Membranes were exposed to Molecular Imager FX phosphoimager (BioRad, Hercules, Calif.) and the radiographic signals were collected and quantitated.

BHK 26.5 replicon cells = test: MTT toxicity assay on BHK 26.5 replicon cells; format: cell-based; conditions: MTT assay
Description: The HTS strategy follows the flowchart outlined in FIG. 2. 35,000 compounds were screened from a chemical library described below, using a cutoff of 50% reduction in luminescence readout as the criteria for further study. Upon completion of the screen, approximately 1100 compounds were selected, making the hit rate of 3%. This is considerably higher than expected, implying many false positive and/or cytotoxic compounds. Nevertheless, the compounds were picked out from the “daughter” plates and re-checked at a single 10 μM concentration. In addition, a duplicate 96 well plates were also plated and the toxicity of the compounds was determined in an MTT assay. Upon completion of these assays, most compounds were disqualified as either false positives or being toxicity to cells. As a result, only a small number of compounds were further analyzed directly from the “mother” plate stock. After IC50 determination and secondary assay to rule out luciferase inhibitors, 23 “hits” were identified.
(§1) Replicon-harboring cells were plated 96-well plates at 10,000 cells per well in MEM plus 3% FBS. 24 hours after plating, compounds were added to the wells by a Robotic liquid handler (Biomek NX) to a final concentration of 10 μM and 1% DMSO. For each 96 well plate, A1 to A8 were left open, H1 to H4 contained 1% DMSO, H5-H8 contained Mycophenolic acid (Sigma-Aldrich, St. Louis, Mo.), which was included as positive controls. After 24 hours of treatment, the media were removed and the luciferase activity expressed in the replicon cells was quantified. When cyto-toxicity was measured, duplicate 96 well plates were plated with BHK 26.5 replicon cells. One plate was used for luciferase assay and one plate was used for measuring toxicity using MTT assay.
(§2) Compound toxicity was determined by MTT assay. For the MTT assay, the cell medium was removed and the monolayers were incubated with 100 μl/well of 0.5 mg/ml MTT for 6 h at 37° C. The MTT solution was then aspirated and 100 μl/well of the 10% SDS (in 0.01N HCl) was added, followed by spectrophotometric quantitation (570 nm) of the insoluble MIT reaction product.

WNV replicon = WNV replicon luciferase assay in BHK 26.5 cells (HTS, re-test, IC50); format: cell-based, West Nile virus; conditions: for pIC50: West Nile virus, 24 h; for Fold decrease (HTS) / Fold decrease (Re-test): luciferase activity; for Fold decrease (HTS): 10 μM compound, 24 hours, BHK 26.5 cells; for Fold decrease (Re-test): re-checked at a single 10 μM concentration
Procedure: Ten micromolar concentrations of a selected compound were incubated with BHK 26.5 cells expressing luciferase whose activity is dependent upon WNV replicon replication (FIG. 1A). Primary “hits” were defined by the ability to reduce the amount of luciferase enzyme activity by more than 50%, compared to controls.
To quantify and rank the activity of the 23 remaining compound “hits”, a serial dilution of each compound was incubated with WNV replicon cells to determine the concentration that inhibits 50% of the luciferase readout (IC50s). […] A number of compounds had significant effect only at the highest, 10 μM concentration. However, several compounds had IC50s between 2 and 5 (Table 3), which is very reasonable for primary HTS hits from a compound library. Only a few compounds could cause 90% inhibition in the replicon cells at the concentrations tested.
as §1
Luciferase assay was performed by using the STEADY GLO reagent (Promega Corp. Madison, Wis.) according to the manufacturer's recommendation with slight modifications. Briefly, the culture media from the 96 wells were removed by dumping on paper towels.
100 μl of a 1:1 mixture of luciferase regent and culture media were added to the plate. After 5-minute incubation, the luminescence was read on a TOPCOUNT (PerkinElmer, Wellesley, Mass.).

WNV NS3 protein = test: Western blot of WNV protein in compound treated replicon cells; format: cell-based, West Nile virus; conditions: 48-hour treatment, up to 10 uM; MPA 2.5 ug/ml
Procedure: Mycophenolic acid (MPA) was used as positive control in the experiment. 4×10^4 cells were seeded in 24 well plates 24 hours before the various concentrations of compounds were added. After 48 hours of drug treatment, SDS-Sample buffer were added to the wells to lyse the cells. The protein samples were separated on SDS-PAGE and transferred to PVDF membrane. Viral protein was detected by probing with a monoclonal antibody against WNV. The same membrane was stripped and probed for beta-actin with the signals shown at the bottom of the blot.
Although it is reassuring that multiple tests have yielded similar positive results, the ability of the compounds to inhibit WNV replication was further assessed in secondary assays. In the western blot analysis shown in FIG. 5, total cell proteins were prepared from WNV replicon cells treated with the hit compounds and the viral protein NS3 was detected with a monoclonal […] against West Nile virus (15). The same blots were stripped and probed for beta-actin to show equal loading. […] When compared with the IC50 determined for these compounds in the luciferase assay, there was a good correlation between the luciferase reduction and the viral protein reduction.
Total cell lysates from replicon cells were harvested from replicon cells in 1×SDS sample buffer. The lysates were heated at 70° C. for 10 min in the presence of DTT before electrophoresis on a 10% Tris-glycine SDS polyacrylamide gel (Invitrogen) in 1× Tris-glycine buffer. The protein was transferred to PVDF (Invitrogen) membrane. Following the transfer, the membrane was rinsed once with TBS containing 0.5% Tween-20 (TBS-Tween) and blocked in TBS-Tween containing 5% non-fat milk for 1 h. After washing with PBS-Tween, the membrane was incubated with the primary WNV antibody (15) at 1:3000 dilutions for 1 h at 25° C. Prior to incubation with HRP conjugated-mouset IgG secondary antibody (Amersham, Life Science, Piscataway, N.J.) diluted 1:5000, the blot was washed in PBS-Tween. Following the secondary antibody incubation, the blot was washed again and treated with Super Signal Chemiluminescent Reagent (Pierce) according to the manufacturer's protocol and exposed to X-ray film. For controls, the blots were stripped and re-probed with an antibody to beta-actin (Chemicon), which was detected with a goat anti-mouse horseradish peroxidase conjugate.

BHK cells = test: toxicity (MTT, CC50) in BHK cells parallel to WNV infection assay; format: cell-based; conditions: 20 μM, parallel toxicity assessment
Procedure: Several of these original compounds selected from the WNV replicon based screen were evaluated in an antiviral assay against WNV live virus. […] Modifications of this compound would be further investigated
The toxicity of 101-G7 was also measured by MTT assay and CC50 was calculated. 40 μM is highest concentration used.
as §2

WNV = WNV yield reduction assay (live virus) on BHK cells; format: cell-based, West Nile virus
Procedure: The antiviral assay for the 309-F6 compounds was conducted on BHK cells. The virus produced in the presence of 1% DMSO or various concentrations of compounds was tittered on Vero cells. The amount of virus relative to the 1% DMSO control was plotted on the y-axis; the concentration of the compound 309F6 is shown in μM on the x-axis. Data from two independently treated wells (Test 1 and Test 2) are shown.
To measure activity against live WNV, BHK cells were plated in 96-well plates at a concentration of 12,000 cells/well. One day later the cells were infected with WNV for 1 h at an MOI of 0.05. The cells were then washed once and re-fed with fresh DMEM containing dilutions of the test compound. Plates were then incubated at 37° C. for 48 h, the supernatant collected and the WNV produced titered. For virus titration, Vero cells were plated in 96-well plates at 8000 cells/well and incubated overnight. The Vero cell monolayer were then infected for 1 h with various dilutions of the WNV supernatant, overlaid with media containing 0.6% tragacanth (ICN, CA) and incubated at 37° C. for 48 h. The culture media was then aspirated; the plate was rinsed, air-dried, and fixed with 50 μl/well acetone/methanol (50:50). Viral foci were detected for enumeration by immunostaining as described previously (15).

| Compound | WNV RNA replication / RNA level (northern blot) (WNV RNA) | WNV RNA reduction (WNV RNA) [fold] | Toxicity (uM)* (BHK 26.5 replicon cells) [µM] | pIC50 (WNV replicon) | Fold decrease (HTS) (WNV replicon) [Fold] | Fold decrease (Re-test) (WNV replicon) [Fold] | WNV NS3 protein level (western blot) (WNV NS3 protein) | cell toxicity (BHK cells) | WNV titer reduced (WNV; 20 μM, BHK cells, titered on Vero cells) | selective index (WNV; estimated) | activity in the WNV infection assay (WNV; live WNV) |
| --- | --- | --- | --- | --- | --- | --- | --- | --- | --- | --- | --- |
| COc1ccc(-n2nc3c(c2NC(=O)c2cccs2)CSC3)cc1 [Compound 18-B3, Thiophene-2-carboxylic acid [2-(4-methoxy-phenyl)-2,6-dihydro-4H-thieno[3,4-c]pyrazol-3-yl]-amide] | clearly inhibited the WNV RNA replication | 1.5 | >30 | 5.30 | 3 | 2 |  |  |  |  |  |
| COc1ccc(-n2nc3c(c2NC(=O)c2ccc(S(=O)(=O)N4CCCCC4)cc2)CSC3)cc1 [Compound 18-D2, N-[2-(4-Methoxy-phenyl)-2,6-dihydro-4H-thieno[3,4-c]pyrazol-3-yl]-4-(piperidine-1-sulfonyl)-benzamide] |  |  | >30 | 5.12 | 3 | 2.8 | dose dependency is also clearly seen |  |  |  |  |
| Cc1nc2c(C(=O)NCCC3=CCCCC3)cnn2c(O)c1Cc1ccccc1Cl [Compound 275-F9, 6-(2-Chloro-benzyl)-7-hydroxy-5-methyl-pyrazolo[1,5-a]pyrimidine-3-carboxylic acid (2-cyclohex-1-enyl-ethyl)-amide] | clearly capable of reducing the WNV RNA level | 2 | >10 | 5.12 | 27 | 4.5 |  |  |  |  |  |
| CCN(CCNC(=O)c1cnn2c(O)c(Cc3ccccc3F)c(C)nc12)c1ccccc1 [Compound 309-F6, 6-(2-Fluoro-benzyl)-7-hydroxy-5-methyl-pyrazolo[1,5-a]pyrimidine-3-carboxylic acid [2-(ethyl-phenyl-amino)-ethyl]-amide] |  |  | >10 | 5.00 | 7 | 6 | reduced viral protein only at the 10 uM | only slight cell toxicity | approximately 90% | more than 8 | inhibited WNV production |
| Cc1ccc(CCNC(=O)c2cnn3c(O)c(Cc4ccccc4F)c(C)nc23)cc1 [Compound 310-B3, 6-(2-Fluoro-benzyl)-7-hydroxy-5-methyl-pyrazolo[1,5-a]pyrimidine-3-carboxylic acid (2-p-tolyl-ethyl)-amide] |  |  | >10 | 5.00 | 17 | 4 | reduced viral protein only at the 10 uM |  |  |  |  |
| COc1ccc(CC(=O)Nc2ccc(C(=N)NO)cc2)cc1 [Compound 331-D11, N-[4-(N-Hydroxycarbamimidoyl)-phenyl]-2-(4-methoxy-phenyl)-acetamide] |  |  | >30 | 5.30 | 4 | 2 | dose dependency is also clearly seen |  |  |  |  |
